Where two headings read alike, the source gives them in different places.
What was measured:
MV4-11 xenograft tumor = assay: In vivo efficacy test, MV4-11 xenograft tumor model in mice; settings: NOD-SCID mice, 5 mg/kg qd gavage, 14 days
From the text: EXAMPLE 11 In Vivo Efficacy Test of the Compound of the Present Application
Objective: To test the inhibitory effect of the test compound on the growth of xenograft tumor in nude mice with MV4-11 leukemia.
Method: NOD-SCID mice were subcutaneously inoculated with MV4-11 cells to establish an MV4-11 xenograft tumor model in mice. 16 days after inoculation (d16), average tumor volume was about 210 mm^3. According to the tumor volumes, the tumor-bearing mice were grouped in a random block method, with 6 mice in each group. The groups included a solvent control group, an ABBV-744 control group, and a test sample group, the dosage was 5 mg/kg mouse body weight, and the dose volume was 10 mL/kg mouse body weight, once a day. Each group was gavage administered for 14 consecutive days, and the solvent control group was gavage administered with a blank solvent (20% […] solution). Tumor volumes were measured twice weekly after administration of the test drug. The animals were euthanized after the test.

[1] = Pharmacokinetic test in SD rats (plasma drug concentration by LC/MS/MS); type: in vivo; settings: rat, 2 mg/kg; for AUC(0-t): read-out: Area under the curve AUClast; for half-life: read-out: Half life T1/2 (converted); for Cmax: read-out: Peak concentration Cmax; for MRT: read-out: Retention time MRT; for Tmax: read-out: Time to peak Tmax
Protocol: EXAMPLE 10 Pharmacokinetic Test of the Compound of the Present Application
SD rats were used as test animals. After gavage administration or tail vein injection of the compound of the present application to the rats, plasma drug concentrations were measured by the LC/MS/MS method at different moments, and pharmacokinetic features of the compound of the present application in the rats was studied.
Source of SD rats: Chengdu Dashuo Experimental Animal Co., Ltd.
Method of administration: single gavage administration and single tail vein injection
Dosage and concentration: 2 mg/kg rat body weight, 0.5 mg/mL
Formulation: 20% β-cyclodextrin solution
Sampling points: 5 min, 15 min, 30 min, 45 min, 1 h, 1.5 h, 2 h, 4 h, 5 h, 6 h, 7 h, 8 h, 9 h and 24 h
Standard curve preparation and sample treatment: 10 mg of the sample to be tested was accurately weighed and added into 1 mL of DMSO for dissolution, and the mixture was used as a stock solution. The stock solution was diluted with 50% (v/v) methanol aqueous solution to prepare standard working solutions having a concentration of 10, 20, 50, 100, 200, 500, 1000 and 2000 ng/mL, respectively. 5 μL of each of the standard working solutions was added to 45 μL of blank rat plasma to prepare standard samples containing the analyte at concentrations of 1.00, 2.00, 5.00, 10.00, 20.00, 50.00, 100.00 and 200.00 ng/mL, 200 μL of methanol (containing internal standard substance: 5 ng/mL memantine hydrochloride) was added to each standard sample, the standard samples were oscillated for 3 minutes and centrifuged at 12000 rpm at 4° C. for 10 minutes, and […] of the supernatant was collected for LC-MS/MS analysis. The test results were calculated by Analyst® software.
Preparation of quality control solution and sample treatment: 10 mg of the sample to be tested was accurately weighed and added into 1 mL of DMSO for dissolution, and the mixture was used as a stock solution. The stock solution was diluted with 50% (v/v) methanol aqueous solution to prepare quality control working solutions having a concentration of 30, 600 and 1600 ng/mL, respectively. 5 μL of each of the quality control working solutions was added to 45 μL of blank rat plasma to prepare quality control samples containing the analyte at concentrations of 3.00, 60.00 and 160.00 ng/mL, 200 μL of methanol (containing internal standard substance: 5 ng/mL memantine hydrochloride) was added to each standard sample, the standard samples were oscillated for 3 minutes and centrifuged at 12000 rpm at 4° C. for 10 minutes, and […] of the supernatant was collected for LC-MS/MS analysis. The test results were calculated by Analyst® software.

hERG ion channel = biological target: T1, hERG ion channel (Homo sapiens, UniProt Q12809); assay: hERG inhibition test, whole-cell patch clamp in HEK293 cells stably expressing the hERG ion channel; type: cell-based; settings: tail current, Hill equation fit
T1 construct: expressed in transfected cells; host or cells: HEK293 cells stably expressing hERG
T1 sequence (Q12809 whole entry): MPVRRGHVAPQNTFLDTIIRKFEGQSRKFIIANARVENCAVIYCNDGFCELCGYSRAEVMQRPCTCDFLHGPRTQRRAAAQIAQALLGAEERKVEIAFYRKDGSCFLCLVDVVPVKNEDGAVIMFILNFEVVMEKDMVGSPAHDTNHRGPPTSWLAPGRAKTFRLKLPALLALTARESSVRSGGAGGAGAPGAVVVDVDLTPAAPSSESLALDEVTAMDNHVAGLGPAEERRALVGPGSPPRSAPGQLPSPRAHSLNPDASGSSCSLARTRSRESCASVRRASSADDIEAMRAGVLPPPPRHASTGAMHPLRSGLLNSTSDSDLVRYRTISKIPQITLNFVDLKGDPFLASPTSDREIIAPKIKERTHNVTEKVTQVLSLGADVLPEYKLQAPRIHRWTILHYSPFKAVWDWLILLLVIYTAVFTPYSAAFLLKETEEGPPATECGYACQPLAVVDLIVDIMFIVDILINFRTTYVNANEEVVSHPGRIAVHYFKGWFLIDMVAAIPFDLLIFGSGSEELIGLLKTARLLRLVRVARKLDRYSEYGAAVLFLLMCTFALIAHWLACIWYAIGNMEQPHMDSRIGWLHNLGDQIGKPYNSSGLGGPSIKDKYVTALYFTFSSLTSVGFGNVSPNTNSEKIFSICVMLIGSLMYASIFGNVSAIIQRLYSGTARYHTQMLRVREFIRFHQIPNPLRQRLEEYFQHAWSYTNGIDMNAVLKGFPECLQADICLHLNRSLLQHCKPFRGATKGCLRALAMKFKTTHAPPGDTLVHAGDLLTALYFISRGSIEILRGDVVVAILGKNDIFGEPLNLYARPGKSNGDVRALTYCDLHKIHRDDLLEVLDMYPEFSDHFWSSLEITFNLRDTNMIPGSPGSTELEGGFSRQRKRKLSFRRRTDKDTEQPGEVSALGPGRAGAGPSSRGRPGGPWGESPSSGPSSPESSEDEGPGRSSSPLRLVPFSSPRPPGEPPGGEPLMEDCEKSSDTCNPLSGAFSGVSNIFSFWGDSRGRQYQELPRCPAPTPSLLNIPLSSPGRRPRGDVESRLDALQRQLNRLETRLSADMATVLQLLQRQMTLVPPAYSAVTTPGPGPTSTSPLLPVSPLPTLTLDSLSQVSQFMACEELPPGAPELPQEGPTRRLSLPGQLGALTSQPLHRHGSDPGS
Protocol: (§1) An hERG current was recorded by the whole-cell patch clamp technique. A suspension of HEK293 cells stably expressing the hERG ion channel was added to a 35 mm culture dish, and the culture dish was put on a stage of an inverted microscope. […] The pulse program was repeated every 15 seconds throughout the whole test. After the current became stable, the administration method of continuous extracellular perfusion from low concentration to high concentration was used, and the perfusion started from low concentration and continued until the drug effect was stable, and then the perfusion of the next concentration was performed.
(§2) After the test, stimulus release and signal acquisition were carried out through PatchMaster software. Graphpad Prism 8.0 was used for further data analysis and curve fitting. Effects of each compound at different concentrations were represented with an inhibition rate of the tail current. Inhibition rate=(peak tail current before administration—peak tail current after administration)/peak tail current before administration x 100%. Half-maximal inhibitory concentration IC50 of the test samples was obtained by the fitting analysis with Hill equation.

hERG = biological target: T2, hERG (Homo sapiens, UniProt Q12809); assay: as above; type: cell-based; settings: human, HEK293 cells stably expressing the hERG ion channel
T2 construct: expressed in transfected cells; host or cells: HEK293 cells stably expressing hERG
T2 sequence (Q12809 whole entry): as above
Protocol: as §1, §2

[2] = read-out: Average hERG inhibition rate
[3] = read-out: hERG Inhibition rate, Cell 1
[4] = read-out: hERG Inhibition rate, Cell 2

CCNC(=O)c1cc2c(-c3sc(C(C)(C)O)cc3N3CCc4ccccc43)cn(C)c(=O)c2[nH]1 [Compound 1, N-ethyl-4-(5-(2-hydroxypropyl-2-yl)-3-(indolin-1-yl)thiophen-2-yl)-6-methyl-7-oxo-6,7-dihydro-1H-pyrrolo[2,3-c]pyridine-2-carboxamide]
Relative tumor proliferation rate T/C (MV4-11 xenograft tumor): 33.15% | AUC(0-t) ([1]; iv, tail vein injection): 327 ng·h/mL | half-life ([1]; iv, tail vein injection): 61.8 min | Cmax ([1]; iv, tail vein injection): 276 ng/mL | MRT ([1]; iv, tail vein injection): 87 min | Tmax ([1]; iv, tail vein injection): 4.8 min | AUC(0-t) ([1]; po, gavage): 250 ng·h/mL | half-life ([1]; po, gavage): 49.8 min | Cmax ([1]; po, gavage): 143 ng/mL | MRT ([1]; po, gavage): 82.2 min | Tmax ([1]; po, gavage): 17.4 min | IC50 (hERG ion channel): 26.8 µM | inhibition at 0.37 µM (hERG; [2]): 3.89% | inhibition at 0.37 µM (hERG; [3]): 0.98% | inhibition at 0.37 µM (hERG; [4]): 6.79% | inhibition at 1.11 µM (hERG; [2]): 4.35% | inhibition at 1.11 µM (hERG; [3]): -0.28% | inhibition at 1.11 µM (hERG; [4]): 8.97% | inhibition at 3.33 µM (hERG; [2]): 10.1% | inhibition at 3.33 µM (hERG; [3]): 2.97% | inhibition at 3.33 µM (hERG; [4]): 17.3% | inhibition at 10 µM (hERG; [2]): 21.6% | inhibition at 10 µM (hERG; [3]): 14.6% | inhibition at 10 µM (hERG; [4]): 28.6% | inhibition at 30 µM (hERG; [2]): 56.3% | inhibition at 30 µM (hERG; [3]): 54.3% | inhibition at 30 µM (hERG; [4]): 58.3%

Source: patent US20230357240A1, “NOVEL N-HETEROCYCLIC BET BROMODOMAIN INHIBITOR, AND PREPARATION METHOD THEREOF AND MEDICAL USE THEREOF” (Chengdu Easton Biopharmaceuticals Co., Ltd., priority 2020, published 2023)
